# How the values were obtained:
# wild-type virus NL4-3 = experiment: TZM infection assay (cell culture-based viral inhibition), wild-type virus; parameters: species or system HIV-1; conditions: Human immunodeficiency virus 1, NL43; wild-type NL4-3 virus; concentration at time of virus production reducing infectivity by 50%; TZM-bl readout
# Experimental: PI dilutions were prepared by taking 10 µM stocked and performing a fivefold serial dilution using RPMI media (final drug concentration is […]). One dilution of drug was added to each well of a 24-well plate and repeated so each virus would have a full set of dilutions. Viruses for the assay were made by seeding 3 × 10^6 CEM cells in a 24-well plate and incubating with 250 µl of virus at 37°C for 2–3 hr before bringing the culture to 10 ml with RPMI media. After 48 hr, the medium was changed and repeated every 48 hr after until the culture had undergone CPE. Infected CEM cells were collected and diluted so that 1 ml of cells could be plated in each well containing a unique drug dilution. Then 24 hr later the virus supernatant was collected from each well followed by filtering through a […] then placed in –80°C. Viruses were thawed and added to 96-well plates in triplicate. TZM-bl cells were collected and diluted to a concentration of 2 × 10^5 cells/ml, 100 µl were added on top of the pre-plated viruses. Plates were kept in 37°C, 5% CO2 in an incubator for 48 hr. After 48 hr, the cells in the plates were lysed by removing the medium, washing two times with 100 µl PBS, and then lysed with 1× lysis buffer (made from 5× Promega Firefly Lysis Buffer). Plates were frozen for at least 24 hr and then thawed for 2 hr before analyzing with Promega Firefly Luciferase Kit on a luminometer. Data was analyzed with Prism 7 to fit sigmoidal dose–response curves.
# [1] = test system: HIV-1 NL4-3 wild-type virus; experiment: Selection for resistance in CEMx174 culture with escalating inhibitor, start wild-type virus, Primer ID deep sequencing; format: cell-based
# Experimental: . The selection experiments were performed under two separate starting conditions: first when the starting virus was generated from the NL4-3 clone (this clone closely approximates the clade B consensus for the protease amino acid sequence and will be referred to as ‘wild type’), then again when the starting virus was a mixture of 26 isogenic viruses each with a single mutation associated with drug resistance in the NL4-3 background. […]. For technical reasons, only five of the selections starting with the mixture of mutants reached an inhibitor concentration as high as 400 nM and are reported here (Figure 2—figure supplement 3).
# Resistance mutations selected in the protease coding domain during the escalating selective pressure of increasing PI concentration were examined at various timepoints using a next-generation sequencing (NGS) protocol that included Primer ID with the MiSeq platform ([Zhou et al., 2015]). We first examined the sequence of the most abundant variant in each of the two selection schemes present at the highest inhibitor concentration reached (Figure 2A). For those selections that reached 5 μM, 8–14 mutations were present in the most abundant variant. Typically the next two most abundant variants in the population differed by a single amino acid, and on average the three most abundant variants in the 5 μM cultures accounted for 88% of the total viral population (Figure 2—source data 1). Evolution of resistance followed two pathways, one based on I50V and one based on I84V. In three cultures, V2wt, V5wt, and V2mut (which reached either 4 or 5 μM final drug concentration; V2wt indicates the virus pool selected with UMASS-2 starting with wild-type virus), these two mutations, I84V and I50V, became linked on the same genome (Figure 2A) showing they are not mutually exclusive; […].
# An aliquot of 3 × 10^6 CEMx174 cells was incubated at 37°C for 2–3 hr with 250 µl of a virus stock generated from the HIV-1 infectious molecular clone pNL4-3. The culture volume was then brought to 10 ml with RPMI medium. […] After 48 hr and every 48 hr after, the cells were pelleted by centrifugation and 10 ml of fresh medium and inhibitors were added. When the culture had undergone extensive cytopathic effect (CPE) indicative of viral replication, the supernatant medium and the cells were harvested separately and stored at –80°C. The virus-containing supernatant was used to start the next round of infection, and after several rounds at the initial concentration, the inhibitor concentration was increased 1.5-fold at each subsequent round of virus passage.
# We used the PID protocol to prepare MiSeq PID libraries with multiplexed primers. Viral RNA was extracted from plasma samples using the QIAamp viral RNA mini kit (QIAGEN, Hilden, Germany). Complementary DNA (cDNA) was synthesized using a cDNA primer mixture targeting protease (PR) with a block of random nucleotides in each cDNA primer serving as the PID, and SuperScript III RT (Thermo Fisher). After two rounds of bead purification of the cDNA, we amplified the cDNA using a mixture of a forward primer that targeted the upstream coding region, followed by a second round of PCR to incorporate the Illumina adaptor sequences. Gel-purified libraries were pooled and sequenced using the MiSeq 300 base paired-end sequencing protocol (Illumina). The sequencing covered the HIV-1 PR region (HXB2 2648-2914, 3001-3257).
# We used the Illumina bcl2fastq pipeline for the initial processing and constructed template consensus sequences (TCSs) with TCS pipeline version 1.33 (https://github.com/SwanstromLab/PID) ([Zhou, 2019]). We then aligned TCSs to an HXB2 reference to remove sequences not at the targeted region or that had large deletions. We used the Entropy tool at LANL (https://www.hiv.lanl.gov/content/sequence/ENTROPY/entropy.html) to calculate entropy for each specimen. The sequencing data is available at NIH Sequencing Read Archive (SRA) under BioProject ID PRJNA853351.
smiles,measurement,setting,value
CCC(CC)CN(C[C@@H](O)[C@H](Cc1ccccc1)NC(=O)O[C@H]1CO[C@H]2OCC[C@H]21)S(=O)(=O)c1ccc(OC)cc1 [UMASS-7],EC50,wild-type virus NL4-3,3.1 ± 0.5 nM
same,Abundance of variant at the last time point,"[1]; variant 10F/13V/33F/46I/47V/50V/53L/54L/67Y/71V/82I, passage 76, [PI] 5000 nM",0.2%
same,Abundance of variant at the last time point,"[1]; variant 10F/13V/33F/46I/47V/50V/53L/54L/71V/82I, passage 76, [PI] 5000 nM",94.5%
same,Abundance of variant at the last time point,"[1]; variant 10F/13V/33F/46I/47V/50V/53L/54L/71V/82I/87K, passage 76, [PI] 5000 nM",0.2%
CCC(CC)CN(C[C@@H](O)[C@H](Cc1ccccc1)NC(=O)O[C@H]1CO[C@H]2OCC[C@H]21)S(=O)(=O)c1ccc2c(c1)OCO2 [UMASS-9],EC50,wild-type virus NL4-3,6.4 ± 1.2 nM
same,Abundance of variant at the last time point,"[1]; variant 10F/13V/33F/41K/45R/46I/47V/50V/53L/54L/66F/71V/74A/76S/82I, passage 78, [PI] 5000 nM",0.7%
same,Abundance of variant at the last time point,"[1]; variant 10F/13V/33F/45R/46I/47V/50V/53L/54L/66F/71V/74A/76S/82I, passage 78, [PI] 5000 nM",92.3%
same,Abundance of variant at the last time point,"[1]; variant 10F/13V/33F/45R/46I/47V/50V/53L/54L/66F/71V/74A/76S/82I/87K, passage 78, [PI] 5000 nM",0.4%
CC[C@H](C)CN(C[C@@H](O)[C@H](Cc1ccccc1)NC(=O)O[C@H]1CO[C@H]2OCC[C@H]21)S(=O)(=O)c1ccc2c(c1)OCO2 [UMASS-4],EC50,wild-type virus NL4-3,3.2 ± 0.4 nM
same,Abundance of variant at the last time point,"[1]; variant 10F/11I/13V/32I/33F/43T/46L/54L/71V/82I/84V/89M/91S/92R, passage 81, [PI] 5000 nM",87.3%
same,Abundance of variant at the last time point,"[1]; variant 10F/11I/32I/33F/43T/46L/54L/71V/82I/84V/89M/91S, passage 81, [PI] 5000 nM",1.3%
same,Abundance of variant at the last time point,"[1]; variant 10F/11I/32I/33F/46L/54L/71V/82I/84V/89M/91S, passage 81, [PI] 5000 nM",1.1%
CC[C@H](C)CN(C[C@@H](O)[C@H](Cc1ccccc1)NC(=O)O[C@H]1CO[C@H]2OCC[C@H]21)S(=O)(=O)c1ccc2ncsc2c1 [UMASS-5],EC50,wild-type virus NL4-3,4 ± 0.5 nM
same,Abundance of variant at the last time point,"[1]; variant 10F/15V/46I/47V/50V/53L/71V/82I/84V/89T, passage 77, [PI] 5000 nM",67.9%
same,Abundance of variant at the last time point,"[1]; variant 10F/46I/47V/50V/53L/63P/71V/82I/84V/89M, passage 77, [PI] 5000 nM",8.8%
same,Abundance of variant at the last time point,"[1]; variant 10F/46I/47V/50V/53L/71V/82I/84V/89T, passage 77, [PI] 5000 nM",10.9%
CC[C@H](C)CN(C[C@@H](O)[C@H](Cc1ccccc1)NC(=O)O[C@H]1CO[C@H]2OCC[C@H]21)S(=O)(=O)c1ccc(CO)cc1 [UMASS-3],EC50,wild-type virus NL4-3,9.1 ± 1 nM
same,Abundance of variant at the last time point,"[1]; variant 10F/33F/46I/47V/50V/53L/63P/71V/76S/82I, passage 93, [PI] 5000 nM",0.9%
same,Abundance of variant at the last time point,"[1]; variant 10F/33F/46I/47V/50V/53L/63P/71V/76S/82I/85V/89I, passage 93, [PI] 5000 nM",85.7%
same,Abundance of variant at the last time point,"[1]; variant 10F/33F/46I/47V/50V/53L/63P/71V/76S/82I/85V/89I/91S, passage 93, [PI] 5000 nM",1.1%
CCC(CC)CN(C[C@@H](O)[C@H](Cc1ccccc1)NC(=O)O[C@H]1CO[C@H]2OCC[C@H]21)S(=O)(=O)c1ccc(N)cc1 [UMASS-6],EC50,wild-type virus NL4-3,5.2 ± 0.8 nM
same,Abundance of variant at the last time point,"[1]; variant 10F/13V/16E/33F/46I/47A/50V/53L/71V, passage 46, [PI] 5000 nM",2.2%
same,Abundance of variant at the last time point,"[1]; variant 10F/13V/33F/46I/47A/50V/53L/63P/71V, passage 46, [PI] 5000 nM",42.3%
same,Abundance of variant at the last time point,"[1]; variant 10F/13V/33F/46I/47A/50V/53L/71V, passage 46, [PI] 5000 nM",45.1%

# Reference: article PMC10065791 (eLife, 2023)
